# Experimental data reported in patent publication US12624044B2, “SMARCA degraders and uses thereof” (Kymera Therapeutics, Inc., priority 2019, dated 2026).
# How the values were obtained:
# Format in all cases: cell-based
# SMARCA2 [1] = target: T1, SMARCA2 (Homo sapiens, UniProt P51531); assay: MSD SMARCA2 degradation in NCI-H1299 cell line (24 h); design: HC: NCI-H1299 cells treated with DMSO; host or cells: NCI-H1299; conditions: NCI-H1299 cells
# In short: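 SMARCA2 measured by MSD electrochemiluminescence (primary 0.3 ug/ml, secondary 1 ug/ml) on lysates from NCI-H1299 cells exposed to compounds for 24 h across nine 3-fold dilutions. Signal scaled from A2780 cells (no SMARCA2) to DMSO-treated H1299 controls, and maximal degradation after 24 h reported in letter categories.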
# SMARCA4 = target: T2, SMARCA4 (Homo sapiens, UniProt P51532); assay: SMARCA4 Western blot MV4-11 degradation; conditions: for DC50 / Dmax: 24 h; for DC50: read-out: SMARCA4 WB MV411 degradation 24 h: Average external-Abs DC50; for Dmax: MV4-11, MV4-11 cells, read-out: SMARCA4 WB MV411 degradation 24 h: Average Dmax %
# T2 construct: SMARCA2 and SMARCA4 protein degradation in MV4-11 cells; endogenous in cells; host or cells: MV4-11
# T2 sequence (P51532 whole entry): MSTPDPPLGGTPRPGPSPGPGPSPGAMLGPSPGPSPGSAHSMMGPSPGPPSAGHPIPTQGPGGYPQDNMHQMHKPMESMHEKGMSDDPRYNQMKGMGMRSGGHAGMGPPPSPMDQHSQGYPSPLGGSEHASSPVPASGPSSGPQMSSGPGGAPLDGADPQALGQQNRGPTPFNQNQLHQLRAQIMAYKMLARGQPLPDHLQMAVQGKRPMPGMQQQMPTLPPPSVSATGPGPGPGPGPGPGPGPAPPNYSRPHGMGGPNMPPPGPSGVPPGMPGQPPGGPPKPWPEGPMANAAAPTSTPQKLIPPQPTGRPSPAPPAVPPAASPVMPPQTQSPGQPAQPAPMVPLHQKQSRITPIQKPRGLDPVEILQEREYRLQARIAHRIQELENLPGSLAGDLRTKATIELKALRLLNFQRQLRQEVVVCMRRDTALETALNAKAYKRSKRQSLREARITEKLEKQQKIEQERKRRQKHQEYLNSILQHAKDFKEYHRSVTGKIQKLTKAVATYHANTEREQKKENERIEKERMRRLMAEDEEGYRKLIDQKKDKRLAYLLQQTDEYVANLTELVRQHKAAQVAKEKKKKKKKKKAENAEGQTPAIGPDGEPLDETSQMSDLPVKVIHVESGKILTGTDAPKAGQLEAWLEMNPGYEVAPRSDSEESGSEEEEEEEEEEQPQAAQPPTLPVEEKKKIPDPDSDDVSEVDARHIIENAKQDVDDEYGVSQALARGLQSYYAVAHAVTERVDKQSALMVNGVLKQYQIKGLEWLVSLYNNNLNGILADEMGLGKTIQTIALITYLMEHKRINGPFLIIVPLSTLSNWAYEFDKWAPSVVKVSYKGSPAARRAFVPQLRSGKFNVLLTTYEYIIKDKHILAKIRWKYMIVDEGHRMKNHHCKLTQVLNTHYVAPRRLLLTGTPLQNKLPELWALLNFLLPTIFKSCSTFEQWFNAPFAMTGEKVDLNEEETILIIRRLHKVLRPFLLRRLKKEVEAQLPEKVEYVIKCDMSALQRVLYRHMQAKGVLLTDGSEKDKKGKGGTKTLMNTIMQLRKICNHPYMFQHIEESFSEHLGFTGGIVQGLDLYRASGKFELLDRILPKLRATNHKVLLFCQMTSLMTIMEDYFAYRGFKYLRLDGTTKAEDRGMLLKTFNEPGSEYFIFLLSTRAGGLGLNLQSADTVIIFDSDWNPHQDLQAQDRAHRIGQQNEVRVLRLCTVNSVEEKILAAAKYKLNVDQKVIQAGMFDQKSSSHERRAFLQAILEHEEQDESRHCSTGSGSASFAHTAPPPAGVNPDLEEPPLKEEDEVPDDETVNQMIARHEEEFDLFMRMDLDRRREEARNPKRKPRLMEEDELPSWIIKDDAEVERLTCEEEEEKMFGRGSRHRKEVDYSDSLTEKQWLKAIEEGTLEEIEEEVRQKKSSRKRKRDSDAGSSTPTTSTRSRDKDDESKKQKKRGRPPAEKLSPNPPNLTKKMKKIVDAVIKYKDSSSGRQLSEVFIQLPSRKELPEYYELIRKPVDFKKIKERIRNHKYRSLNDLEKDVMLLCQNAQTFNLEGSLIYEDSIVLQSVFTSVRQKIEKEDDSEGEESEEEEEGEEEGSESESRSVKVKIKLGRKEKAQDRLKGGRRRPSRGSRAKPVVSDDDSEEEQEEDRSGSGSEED
# In short: (§1)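 MV4-11 cells treated with compound for 24 h, lysed in RIPA with protease/phosphatase inhibitors, and SMARCA2 and SMARCA4 (BRG1) levels assessed by Western blot with β-actin loading control and LI-COR fluorescent read-out. Maximal degradation (Dmax %) after 24 h binned into letter codes.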
# SMARCA2 [2] = target: T1, SMARCA2; assay: SMARCA2 Western blot MV4-11 degradation; conditions: for DC50 / Dmax: 24 h; for DC50: read-out: SMARCA2 WB MV411 degradation 24 h: Average external-Abs DC50; for Dmax: MV4-11, MV4-11 cells, read-out: SMARCA2 WB MV411 degradation 24 h: Average Dmax %
# In short: as §1
# SMARCA2 [3] = target: T1, SMARCA2; assay: MSD SMARCA2 degradation in A549 cell line; conditions: for DC50 / Dmax: 24 h; for DC50: read-out: SMARCA2 MSD A549 degradation 24 h: Average external-Abs DC50; for Dmax: A549, A549 cells
# In short: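 SMARCA2 remaining was measured by MSD electrochemiluminescence on RIPA lysates (anti-SMARCA2 plus SULFO-TAG anti-rabbit). Prior exposure: 24 h of A549 cells to a 10-point, 3-fold dilution series topping at 1000 nM final; Dmax % given as graded codes.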
# T1 sequence (P51531 whole entry): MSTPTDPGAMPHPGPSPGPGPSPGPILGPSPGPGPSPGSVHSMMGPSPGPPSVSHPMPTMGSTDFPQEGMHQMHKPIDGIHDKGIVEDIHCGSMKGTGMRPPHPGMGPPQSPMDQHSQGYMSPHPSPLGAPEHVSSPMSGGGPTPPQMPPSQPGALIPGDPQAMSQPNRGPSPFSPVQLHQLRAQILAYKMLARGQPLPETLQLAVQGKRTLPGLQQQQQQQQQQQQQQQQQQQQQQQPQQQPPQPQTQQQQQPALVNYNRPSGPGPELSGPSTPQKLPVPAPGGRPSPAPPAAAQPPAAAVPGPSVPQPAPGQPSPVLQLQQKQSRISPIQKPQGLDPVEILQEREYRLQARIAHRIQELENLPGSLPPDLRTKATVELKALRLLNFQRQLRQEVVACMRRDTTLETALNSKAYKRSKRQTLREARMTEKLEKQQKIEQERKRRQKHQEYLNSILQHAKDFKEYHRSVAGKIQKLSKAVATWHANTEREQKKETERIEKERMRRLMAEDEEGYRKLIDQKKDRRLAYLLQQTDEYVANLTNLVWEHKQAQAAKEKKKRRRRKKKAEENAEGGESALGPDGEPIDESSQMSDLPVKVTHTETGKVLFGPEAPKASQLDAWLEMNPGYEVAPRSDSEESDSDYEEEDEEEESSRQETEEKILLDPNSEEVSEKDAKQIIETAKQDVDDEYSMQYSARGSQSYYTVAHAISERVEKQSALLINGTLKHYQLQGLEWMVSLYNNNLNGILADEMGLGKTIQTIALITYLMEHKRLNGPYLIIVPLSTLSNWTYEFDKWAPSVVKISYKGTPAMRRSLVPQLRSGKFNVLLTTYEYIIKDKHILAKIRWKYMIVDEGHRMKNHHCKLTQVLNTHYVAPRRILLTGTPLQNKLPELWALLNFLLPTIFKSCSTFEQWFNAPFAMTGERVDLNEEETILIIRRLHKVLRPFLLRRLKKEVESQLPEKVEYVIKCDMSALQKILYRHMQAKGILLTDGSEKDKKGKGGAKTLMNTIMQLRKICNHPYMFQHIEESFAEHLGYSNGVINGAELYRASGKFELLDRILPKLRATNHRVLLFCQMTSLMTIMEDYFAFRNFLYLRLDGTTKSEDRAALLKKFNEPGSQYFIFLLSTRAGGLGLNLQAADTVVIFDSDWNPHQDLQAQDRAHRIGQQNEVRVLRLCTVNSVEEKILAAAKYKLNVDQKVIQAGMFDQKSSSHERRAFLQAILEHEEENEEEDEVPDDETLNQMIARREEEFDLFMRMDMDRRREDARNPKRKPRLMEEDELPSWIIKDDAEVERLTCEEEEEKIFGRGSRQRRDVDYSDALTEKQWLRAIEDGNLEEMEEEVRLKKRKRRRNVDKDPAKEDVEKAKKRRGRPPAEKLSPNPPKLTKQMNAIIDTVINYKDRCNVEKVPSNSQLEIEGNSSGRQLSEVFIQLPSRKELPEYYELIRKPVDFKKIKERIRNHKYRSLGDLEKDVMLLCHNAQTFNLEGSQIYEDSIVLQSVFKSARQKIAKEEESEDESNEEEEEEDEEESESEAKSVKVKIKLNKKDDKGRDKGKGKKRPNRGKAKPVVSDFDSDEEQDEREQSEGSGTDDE
SMARCA2 MSD H1299 degradation 24 h: Dmax % (SMARCA2 [1]),DC50 (SMARCA2 [1]; read-out: SMARCA2 MSD H1299 degradation 24 h: External Abs-DC50),SMARCA4 WB MV411 degradation 24 h: Average Dmax % (SMARCA4; MV4-11 cells),SMARCA2 WB MV411 degradation 24 h: Average Dmax % (SMARCA2 [2]; MV4-11 cells),SMARCA2 MSD A549 degradation 24 h: Average Dmax % (SMARCA2 [3]; A549 cells),Compound,DC50 (SMARCA4; MV4-11 cells),DC50 (SMARCA2 [2]; MV4-11 cells),DC50 (SMARCA2 [3]; A549 cells),Dmax (SMARCA4),Dmax (SMARCA2 [2]),Dmax (SMARCA2 [3])
C (C (50-70 degradation)),0.501 to 1 µM,D (D (<50% degradation)),B (B (>70-90% degradation)),B (B (>70-90% degradation)),Cc1ncsc1-c1ccc(CNC(=O)[C@@H]2C[C@@H](O)CN2C(=O)[C@@H](NC(=O)[C@H]2CC3(C2)C[C@H](N2CCC(n4cc(-c5cc(-c6ccccc6O)nnc5N)cn4)CC2)C3)C(C)(C)C)cc1 (stereo partly shown) [I-390],< 0.1 µM,< 0.1 µM,0.1 to 0.5 µM,–,–,–
–,–,–,–,–,Cc1ncsc1-c1ccc(CNC(=O)[C@@H]2C[C@@H](OC(=O)[C@H](C)N)CN2C(=O)[C@@H](NC(=O)[C@H]2CC[C@H](c3cnc(N4C5CCC4CN(c4cc(-c6ccccc6O)nnc4N)C5)nc3)CC2)C(C)(C)C)cc1 [I-409],< 0.1 µM,< 0.1 µM,< 0.1 µM,> 90%,> 90%,> 90%
–,–,–,–,–,Cn1c(=O)n(C2CCC(=O)NC2=O)c2ccc([C@H]3CC[C@@H](N4CCC(c5cnc(N6C7CCC6CN(c6cc(-c8ccccc8O)nnc6N)C7)nc5)CC4)CC3)cc21 (stereo partly shown) [I-277],< 0.1 µM,< 0.1 µM,< 0.1 µM,> 90%,> 90%,> 90%
–,–,–,–,–,Cc1ncsc1-c1ccc(CNC(=O)[C@@H]2C[C@@H](O)CN2C(=O)[C@@H](NC(=O)[C@H]2C[C@]3(C[C@H](CN4CCC(c5cnc(N6C7CCC6CN(c6cc(-c8ccccc8O)nnc6N)C7)nc5)CC4)C3)C2)C(C)(C)C)cc1 (stereo partly shown) [I-427],0.1 to 0.5 µM,< 0.1 µM,< 0.1 µM,< 50%,> 90%,–
